Assay: Solubility of glycerol carbonate, glycerol and urea in selective solvents
Type: physicochemical
Conditions: at 25° C.

CC(C)C#N [Isobutyronitrile]
Solubility of Glycerol Carbonate (solute glycerol carbonate in the listed solvent): >500 mg/mL
Solubility of Glycerol (solute glycerol in the listed solvent): 10 mg/mL
Solubility of Urea (solute urea in the listed solvent): 60 mg/mL

— patent US8877948B2, “Synthesis process of polyol carbonate from polyols, conducted in using a solvent selective for polyols carbonates” (Arkema France, priority 2008, dated 2014)
